From BindingDB's records for doi:10.1021/acsmedchemlett.1c00211 (Biogen, 2021) come the findings set out here.

The IC50 is the concentration that inhibits the measured activity by half.

Assay [1] has as its target Autotaxin (ENPP2) (Rattus norvegicus) (UniProt Q64610). The assay can be described thus: Inhibition of LPA in rat plasma after 18 hrs by LC-MS/MS analysis.
Assay [2] deals with Autotaxin (ENPP2) (Homo sapiens) (UniProt Q13822). Description: Inhibition of LPA in human plasma after 18 hrs by LC-MS/MS analysis.

In the case of `C[C@@H](c1ccc2ccc(O[C@H]3CC[C@@H](C(F)(F)F)CC3)c(C(F)(F)F)c2c1)N1C2CCC1CC(C(=O)O)C2` (some centres not stated), the IC50 came out at 47 nM in assay [1] and 53 nM in assay [2].
